Measurements reported in patent US10813920B2, “Drug for treating corneal endothelium by promoting cell proliferation or inhibiting cell damage” (THE DOSHISHA, priority 2013, dated 2020).

Assays:
[1] = tested on: corneal endothelium; experiment: Monkey corneal endothelial partial disorder model, eye drops, Ki-67 immunostaining; assay type: in vivo, cynomolgus monkey; settings: 3 mM eye drops, 50 μl, 4 times a day, right eye; vs base agent in left eye; 5 views per eye; p<0.01
Method: After a stainless steel bar with a diameter of 7 mm was cooled with liquid nitrogen, the bar was contacted with the corneal in both eyes of 2 cynomolgus monkeys (purchased from Shiga University of Medical Science). About 7 mm in diameter of the corneal endothelium fell off to make a partial disorder model.
50 μl of SB203580 (3 mM) eyedrops was then administered into the right eye 4 times a day. Similarly, eye drops of abase agent, which is phosphate buffer solution, were administered into the left eye as the control.
Expression of Ki-67 associated with cell proliferation was confirmed to be elevated after administration of SB203580 eye drops by immunostaining. The methodology of immunostaining was in accordance with the above-described Preparation Example 2. The antibodies were changed to antibodies to Ki-67 to conduct the experiment.
For a tissue staining inspection, cultured cells were immobilized with 4% formaldehyde for 10 minutes at room temperature (RT) and incubated for 60 minutes with 1% bovine serum albumin (BSA). The antibodies to Ki-67 were diluted 1:200 to conduct the inspection. For secondary antibodies, a 1:1000 dilution of Alexa Fluor® 488 labeling goat antimouse IgG (Life Technologies) was used. […] Slides were then observed under a fluorescence microscope (all-in-one fluorescence microscope, KEYENCE, Osaka, JAPAN). […]

[2] = tested on: human corneal endothelial cells; experiment: Na+/K+-ATPase and ZO-1 immunostaining (pumping and barrier function markers); assay type: cell-based; settings: 1, 3, 10 μM; immunostaining after 20 days
Method: (§1) *Human corneal endothelial cells (HCEC, where the cells were obtained and culturing method thereof): HCEC was cultured as follows. In short, Descemet's membrane including corneal endothelial cells was peeled off from a corneal for research purchased from the Seattle Eye Bank, and the corneal endothelial cells were mechanically peeled off with a basal membrane. After collagenase (ROCHE catalog No: 10 103 586 001) was used to detach and collect the corneal endothelial cell from the basal membrane (typically 1 mg/mL collagenase A (Roche Applied Science) was used for treatment at 37° C. for 2 hours), the cells were subjected to primary culture. The medium used was Opti-MEM I Reduced-Serum Medium, Liquid (INVITROGEN catalog No.: 31985-070) to which 8% fetal bovine serum (FBS) (BIOWEST, catalog No.: S1820-500), […] of CaCl2.2H2O (SIGMA catalog No.: C7902-500G), 0.08% of chondroitin sulfate (SIGMA catalog No.: C9819-5G), 20 μg/ml of ascorbic acid (SIGMA catalog No.: A4544-25G), 50 μg/ml of gentamicin (INVITROGEN catalog No.: 15710-064) and 5 ng/ml of EGF (INVITROGEN catalog No.: PHG0311) were added and acclimated for a 3T3 feeder cell. […] Immunostaining was applied to the cells for observation with a fluorescence microscope. […]

[3] = tested on: corneal endothelial cells; experiment: Western blotting of cyclin dependent kinase inhibiting factors and G1/S transition molecules in cultured corneal endothelial cells; assay type: cell-based, human
[4] = tested on: corneal endothelial cells; experiment: Western blot of apoptosis molecules after UV irradiation; assay type: cell-based; settings: UV 100 J/m^2, 10 μM
Method: as §1, with “cell. Specifically, after digestion at 37° C., HCEC obtained from individual corneas was resuspended in a culture medium and plated on a well of a 12-well plate coated with FNC Coating Mix®. The culture medium was prepared in accordance with a partially-modified disclosed protocol. In short, a basal cultural medium containing OptiMEM-I (Life Technologies), 8% FBS, 5 ng/mL of epithelial growth factor (EGF) (Sigma-Aldrich Co., St. Louis, Mo.), 20 μg/mL of ascorbic acid (Sigma-Aldrich), 200 mg/L calcium chloride (Sigma-Aldrich), 0.08% chondroitin sulfate (Wako Pure Chemical Industries, Osaka) and 50 μg/mL of gentamicin was prepared and an acclimated medium was collected after inactivated 3T3 fibroblasts were cultured. The 3T3 fibroblasts were inactivated as previously described.” for “cell.”

[5] = Western blotting after 20 days, 10 μM and 30 μM vs control
[6] = Western blotting, 10 μM, after 12 hours and 24 hours

## C[S+]([O-])c1ccc(-c2nc(-c3ccncc3)c(-c3ccc(F)cc3)[nH]2)cc1 (centres unmarked) [SB203580, 4-(4-fluorophenyl)-2-(4-methylsulfinylphenyl)-5-(4-pyridyl)-1H-imidazole]
[1]
  percentage of Ki67 positive cells in corneal endothelium: significantly more Ki67 positive cells
[2]
  expression of Na+/K+-ATPase and ZO-1: express Na^+/K^+-ATPase and ZO-1 and to maintain normal functions in all cells
[3]; [5]
  expression of p16: suppressed
  expression of p21: suppressed
  expression of p27: suppressed
[3]; [6]
  Rb protein phosphorylation (p-pRb): promoted
  cyclin D1 expression: promoted
  cyclin D3 expression: promoted
[4]
  activation by cleavage of PARP due to UV irradiation: suppresses
  activation by cleavage of caspase 3 due to UV irradiation: suppresses
  phosphorylated histone H2AX induced by UV irradiation: suppresses
